According to patent US20070123473A1, “Glycosylated steroid derivatives with anti-migratory activity” (priority 2003, published 2007):

Experiments:
Hs578T (breast cancer) = assay: Cell migration of cancer cells (phase-contrast videomicroscopy), Hs578T; assay type: cell-based, human
Method: (§1) Cells of different types of cancer, i.e. U-373 MG (Glioma), Hs578T (breast cancer), PC-3 (prostate cancer) and A549 (lung cancer) were seeded on culture flask 48 hours before the migration experiment. On the test day, cells were treated with or without compounds UBS3270, UBS3285, UBS3327, UBS3328, UBS3501, UBS3585, UBS3597, UBS3976, UBS4066, UBS4095, UBS4104, UBS4109, UBS4209 and UBS4373 in closed Falcon dishes containing a buffered medium at a controlled temperature (37.0±0.1° C.) for 12 or 24 hours. The compounds were administered at 4 concentrations (10^−7 M to 10^−10 M). Migration of the cells was observed by means of a CCD-camera mounted on a phase-contrast microscope. A statistical analyse of the migration, with the non-parametric Mann-Whitney test, was established for 25%-50% of the most motile cells and for the entire cell population for UBS3270, UBS3285, UBS3327, UBS3328, UBS3501, UBS3585, UBS3597, UBS3976, UBS4066, UBS4095, UBS4104, UBS4109, UBS4209 and UBS4373 compounds. The table C below illustrates the anti-migratory effect of the compound according to the invention.

U-373 MG (Glioma) = assay: Cell migration of cancer cells (phase-contrast videomicroscopy), U-373 MG; assay type: cell-based, human
Method: as §1

A549 (lung cancer) = assay: Cell migration of cancer cells (phase-contrast videomicroscopy), A549; assay type: cell-based, human; conditions: 25% of most motile cells
Method: as §1

P388 lymphoma = assay: Survival of P388 lymphoma bearing mice (T/C index); assay type: in vivo, mouse; conditions: 40 mg/kg subcutaneously, T/C of 130% or more = significant prolongation of survival
Method: The compounds UBS3328 and UBS3501 were evaluated on the aggressive P388 lymphoma cancer model. When leukemic P388 cells of lymphoblastic origin (Pihl A. UICC Study Group on chemosensitivity testing of human tumors. Problems-applications-future prospects. Int J Cancer. 1986 Jan. 15; 37(1):1-5) are grafted subcutaneously, they develop as very biologically aggressive anaplastic lymphomas markedly metastasizing first into the liver, then in the lungs and occasionally in kidneys. The mice suffering from P388 lymphomas usually die about 2 weeks after the cell injection. The P388 lymphoma was thus used as a model representative of a clinically terminal state of cancer.
The model was performed with 5 mice per group and the compounds UBS3328 and UBS3501 were injected subcutaneously at 40 mg/kg for 4 days, two times per day, for the two first weeks post graft followed by one administration everyday, one times per day for the third week post graft.
The effect of the compounds UBS3328 and UBS3501 on the survival of the P388 cancer bearing mice is evaluated following the analysis of the T/C index. T/C index is calculated by dividing the median day of death in a treated group T by the median day of death in the control group C. T/C values of 130% or more (i.e. a prolongation of mice survival of 30% or more) indicate a significant prolongation of survival.

PC-3 (prostate cancer) = assay: Cell migration of cancer cells (phase-contrast videomicroscopy), PC-3; assay type: cell-based, human
Method: as §1

[1] = 24 hours, 25% of most motile cells, 10^−9 M
[2] = 12 hours, entire cell population, 10^−9 M

Question: `COc1ccc(OC)c(C2CC3C4CC=C5CC(OC6O[C@H](CO)[C@@H](O)[C@H](O)[C@@H]6O)CCC5(C)C4CCC3(C)C2C(C)=O)c1` (some centres unmarked) [UBS3270] was tested. Which “Max. effects (anti-migratory effect)” value (Hs578T (breast cancer); 24 hours, 50% of most motile cells, 10^−7 M) did it give?
Answer: The value was −27%/p < 0.001.

Question: Which results are given for `COc1ccc(OC)c(C2CC3C4CC=C5CC(OC6O[C@H](CO[C@H]7O[C@H](CO)[C@@H](O)[C@H](O)[C@H]7O)[C@@H](O)[C@H](O)[C@H]6O)CCC5(C)C4CCC3(C)C2C(C)=O)c1` (some centres unmarked) [UBS3328]?
Answer: Max. effects (anti-migratory effect) (U-373 MG (Glioma); 12 hours, entire cell population, 10^−10 M): −27%/p < 0.001; Max. effects (anti-migratory effect) (A549 (lung cancer); 24 hours, 10^−7 M): −40%/p < 0.001; T/C index (median day of death treated / control) (P388 lymphoma): 135%

Question: With `COc1ccc(OC)c(C2CC3C4CC=C5CC(OC6O[C@@H](C)[C@@H](O)[C@@H](O)[C@@H]6O)CCC5(C)C4CCC3(C)C2C(C)=O)c1` (some centres unmarked) [UBS3501] as the molecule, how does the “Max. effects (anti-migratory effect)” value (U-373 MG (Glioma); 24 hours, 25% of most motile cells, 10^−8 M) read?
Answer: The value was −38%/p = 0.01.

Question: What about the “Max. effects (anti-migratory effect)” value (PC-3 (prostate cancer); 12 hours, 25% of most motile cells, 10^−7 M) of the same molecule?
Answer: Its value is −23%/p < 0.001.

Question: What about the “T/C index (median day of death treated / control)” value (P388 lymphoma) of the same molecule?
Answer: The value was 141%.

Question: How did the “Max. effects (anti-migratory effect)” value (Hs578T (breast cancer); 24 hours, entire cell population, 10^−7 M) turn out when `COc1ccc(OC)c(C2CC3C4CC=C5CC(OC6O[C@H](CO)[C@@H](O)[C@H](O)[C@H]6NC(C)=O)CCC5(C)C4CCC3(C)C2C(C)=O)c1` (some centres unmarked) [UBS3585] was run?
Answer: The value was −27%/p < 0.001.

Question: How did the “Max. effects (anti-migratory effect)” value (PC-3 (prostate cancer); [1]) turn out when `COc1ccc(OC)c(C2CC3C4CC=C5CC(OC6O[C@H](CO)[C@H](O)[C@H](O)[C@H]6NC(C)=O)CCC5(C)C4CCC3(C)C2C(C)=O)c1` (some centres unmarked) [UBS3597] was run?
Answer: Its value is −31%/p < 0.001.

Question: Which results are given for `COc1ccc(OC)c(C2CC3C4CC=C5CC(OC6O[C@H](CO)[C@@H](O[C@@H]7O[C@H](CO)[C@H](O)[C@H](O)[C@H]7O)[C@H](O)[C@H]6O)CCC5(C)C4CCC3(C)C2C(C)=O)c1` (some centres unmarked) [UBS3976]?
Answer: Max. effects (anti-migratory effect) (U-373 MG (Glioma); 24 hours, 25% of most motile cells, 10^−10 M): −46%/p < 0.001; Max. effects (anti-migratory effect) (PC-3 (prostate cancer); 12 hours, 25% of most motile cells, 10^−8 M): −51%/p < 0.001

Question: What does the source list for `COc1ccc(OC)c(C2CC3C4CC=C5CC(OC6O[C@@H](C)[C@@H](O)[C@@H](O)[C@@H]6O)CCC5(C)C4CCC3(C)C2C(C)OC2O[C@@H](C)[C@@H](O)[C@@H](O)[C@@H]2O)c1` (some centres unmarked) [UBS4066]?
Answer: Max. effects (anti-migratory effect) (Hs578T (breast cancer); 12 hours, 25% of most motile cells, 10^−9 M): −29%/p < 0.001; Max. effects (anti-migratory effect) (PC-3 (prostate cancer); [1]): −45%/p < 0.001

Question: How did the “Max. effects (anti-migratory effect)” value (U-373 MG (Glioma); 24 hours, entire cell population, 10^−9 M) turn out when `COc1ccc(OC)c(C2CC3C4CC=C5CC(OC6O[C@H](CO)[C@@H](O[C@H]7O[C@H](CO)[C@@H](O)[C@H](O)[C@H]7O)[C@H](O)[C@H]6O)CCC5(C)C4CCC3(C)C2C(C)=O)c1` (some centres unmarked) [UBS4095] was run?
Answer: Its value is −27%/p < 0.001.

Question: How did the “Max. effects (anti-migratory effect)” value (U-373 MG (Glioma); 12 hours, 50% of most motile cells, 10^−10 M) turn out when `COc1ccc(OC)c(C2CC3C4CC=C5CC(O[C@@H]6O[C@H](CO)[C@@H](O)[C@H](O)[C@H]6NC(C)=O)CCC5(C)C4CCC3(C)C2C(C)=O)c1` (some centres unmarked) [UBS4104] was run?
Answer: The value was −23%/p < 0.001.

Question: And the “Max. effects (anti-migratory effect)” value (A549 (lung cancer); 24 hours, 10^−10 M)?
Answer: Its value is −46%/p < 0.001.

Question: `COc1ccc(OC)c(C2CC3C4CC=C5CC(OC6O[C@H](CO)[C@@H](O[C@@H]7O[C@H](CO)[C@@H](O)[C@H](O)[C@H]7O)[C@H](O)[C@H]6O)CCC5(C)C4CCC3(C)C2C(C)OC2O[C@H](CO)[C@@H](O[C@@H]3O[C@H](CO)[C@@H](O)[C@H](O)[C@H]3O)[C@H](O)[C@H]2O)c1` (some centres unmarked) [UBS4109] was tested. Which “Max. effects (anti-migratory effect)” value (PC-3 (prostate cancer); [2]) did it give?
Answer: Its value is −34%/p < 0.001.

Question: What does the source list for `COc1ccc(OC)c(C2CC3C4CC=C5CC(OC6O[C@H](CO)[C@@H](O[C@@H]7O[C@H](CO)[C@H](O)[C@H](O)[C@H]7O)[C@H](O)[C@H]6O)CCC5(C)C4CCC3(C)C2C(C)OC2O[C@H](CO)[C@@H](O[C@@H]3O[C@H](CO)[C@H](O)[C@H](O)[C@H]3O)[C@H](O)[C@H]2O)c1` (some centres unmarked) [UBS4209]?
Answer: Max. effects (anti-migratory effect) (Hs578T (breast cancer); 24 hours, 25% of most motile cells, 10^−7 M): −26%/p < 0.001; Max. effects (anti-migratory effect) (A549 (lung cancer); 12 hours, 10^−8 M): −26%/p < 0.001

Question: How did the “Max. effects (anti-migratory effect)” value (U-373 MG (Glioma); [2]) turn out when `COc1ccc(OC)c(C2CC3C4CC=C5CC(OC6O[C@H](CO[C@H]7O[C@H](CO)[C@@H](O)[C@H](O)[C@H]7O)[C@@H](O)[C@H](O)[C@H]6O)CCC5(C)C4CCC3(C)C2C(C)OC2O[C@H](CO[C@H]3O[C@H](CO)[C@@H](O)[C@H](O)[C@H]3O)[C@@H](O)[C@H](O)[C@H]2O)c1` (some centres unmarked) [UBS4373] was run?
Answer: Its value is −24%/p < 0.001.
